# Reference: paper PMC12154549, “Structure-based design of an aromatic helical foldamer–protein interface” (Chemical Science, 2025)
# pKd: −log10 of the molar value. Where two headings read alike, the source gives them in different places.
# Tests used:
# HCAII [1] = target: T1, HCAII (Homo sapiens, UniProt P00918); assay: Direct fluorescence titration of probe 23 with HCAII; type: binding; details: 23 50 nM, 50 mM HEPES pH 7.2, RT, 1:1 model; read-out: KD of 23·HCAII complex
# T1 construct: made in house
# Method: 4.2 Fluorescence binding assay
# This fluorescence assay was adapted from the paper of Anzenbacher.18 All fluorescence titrations were done in aqueous 50 mM HEPES buffer (pH = 7.2) at room temperature , without degassing of the samples and using a qua rtz fluorescence cuvette with 1 cm path length on Varian Cary Eclipse Spectrophotometer 05813. The titration assays were carried out in two parts: 1) sensor - protein titration (Figure S21); 2) sensor-foldamer competition assay (Figure S24). Several experiments were repeated and validated a reproducibility within 15% error.
# Figure S21. Schematic procedure of the titration experiment between indicator 23 and HCAII (adapted from literature18).
# 4.2.1 KD measurement of the 23•HCAII complex
# 1. […]
# 2. To the solution of 23 (50 nM) in HEPES buffer (50 mM, pH 7.2) in the fluorescence cuvette (2 mL), incremental volumes of a stock solution of HCAII (11 µM) in HEPES buffer were added.
# After each addition and gentle agitation, the resulting mixture was incubated for 5 min at RT. The intensity of fluorescence (IF) was then recorded from 380 nm to 600 nm (λex = 373 nm).   […]
# software.19 For curve fitting, the binding model was set to 1:1. The spectra of all emitting species were recorded from 380 nm to 600 nm (λex = 373 nm) in separate experiments and set as “unknown spectrum”. The KD value was determined considering all the wavelengths recorded. […]
# HCAII [2] = target: T1, HCAII; assay: Fluorescence competition assay: HCAII titrated into foldamer or ligand plus probe 23; details: [competing species] = [23] = 50 nM; 50 mM HEPES pH 7.2; 1:1 binding isotherm, 380-600 nm; repeatable within ±15%
# From the text: We turned to a recently published assay that exploits the quenching of the fluorescence of nanomolar ligand 23 upon binding to HCAII (Fig. 8a).[32] The low KD value of 23 makes it suitable to perform competition (displacement) assays with compounds binding in the same concentration range. However, some optimization of the assay was required to perform experiments with foldamer-containing ligands because the foldamers absorb both at the excitation (373 nm) and emission (400–450 nm) wavelengths of 23. Performing classical direct displacement titrations where a foldamer is added to a solution containing 23 and HCAII would be complicated by variable inner filter effects. […] For fluorescence measurements: 50 mM HEPES (4-(2-hydroxyethyl)-1-piperazineethanesulfonic acid) at pH 7.2. […] It appears that the fluorescence drops upon adding HCAII, i.e. that ligand 23 binds to HCAII, in presence of the foldamer faster than predicted by the binding model. A better fit can be artificially obtained by inputting HCAII concentrations 20% larger than those measured or foldamer concentrations 20% lower than those measured in the curve fitting program. […]
# 4.2 Fluorescence binding assay […]
# 2. To the solution of 23 (50 nM) in HEPES buffer (50 mM, pH 7.2) in the fluorescence cuvette (2 mL), incremental volumes of a stock solution of HCAII (11 µM) in HEPES buffer were added. […]
# HCAII [3] = target: T1, HCAII; set-up: method as in PMID 30395443; details: HCAII immobilized; 2:98 DMSO/PBS pH 7.4, 25 °C; ref 8a; read-out: KD by SPR; cited from earlier work
pKd (HCAII [1]),pKd (HCAII [2]),Structure (SMILES),pKd (HCAII [3])
8.77,–,COc1ccc2cc(C(=O)Nc3nnc(S(N)(=O)=O)s3)c(=O)oc2c1 [probe 23],–
–,8.00,NCCCCOc1cccc(CNC(=O)c2ccc(S(N)(=O)=O)cc2)c1 [ligand 22],8.30
